37 compounds from patent US9174992B2, “Heterobicyclic compounds” (Amgen Inc., priority 2012, dated 2015) can be followed below.

The target of the test is PDE10A (UniProt Q9Y233). The experiment in a line: PDE10 enzyme inhibition, IMAP TR-FRET assay (Example A, MPDE10A7 Enzyme Activity and Inhibition). As to conditions: approximate IC50 value, Table 10. Type of test: biochemical. Summed up: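 Compounds were preincubated 60 min at room temperature with PDE10A enzyme or tissue homogenate, then fluorescein-labeled cAMP or cGMP was added for 90 min. After stopping with IMAP binding reagents, TR-FRET was read and IC50s were fitted with a four-parameter logistic equation.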
In general terms: Time-resolved FRET reads energy transfer from a long-lived donor to a nearby acceptor.

Regarding `CC1(C)C(=O)N([C@H]2C[C@H](Nc3nccs3)C2)c2ncccc21` [Example 55, 3,3-Dimethyl-1-(trans-3-(thiazol-2-ylamino)cyclobutyl)-1H-pyrrolo[2,3-b]pyridine-2(3H)-one], the half-maximal inhibitory concentration (IC50) (usually the concentration that gives 50% inhibition) amounted to 7.43 nM. This counts as single-digit nanomolar.
`Cn1c(N[C@H]2C[C@H](n3c(=O)n(C4CC4)c4nccnc43)C2)nc2ccccc21` [Example 226, 1-cyclopropyl-3-(trans-3-((1-methyl-1H-benzo[d]imidazol-2-yl)amino)cyclobutyl)-1H-imidazo[4,5-b]pyrazin-2(3H)-one] registered a 50% inhibitory concentration (IC50) of 1.2 nM.
Then `COc1nc2cccnc2n1C1CCN(C(=O)c2nc3ccccc3s2)CC1` [Example 124, Benzo[d]thiazol-2-yl(4-(2-methoxy-3H-imidazo[4,5-b]pyridine-3-yl)piperidin-1-yl)methanone], with 2.64 nM.
The value for `Cc1ccnc(N[C@H]2C[C@H](N3C(=O)C(C)(C)c4cccnc43)C2)n1` [Example 63, 1-(trans-3-((4-methylpyrimidin-2-yl)amino)cyclobutyl)-3,3-dimethyl-1H-pyrrolo[2,3-b]pyridin-2(3H)-one] was 38.6 nM; that for `CC1(C)C(=O)N([C@@H]2CCN(c3nc4ccccc4s3)C2)c2nccnc21` [Example 140, (R)-5-(1-(benzo[d]thiazol-2-yl)pyrrolidin-3-yl)-7,7-dimethyl-5H-pyrrolo[2,3-b]pyrazin-6(7H)-one] was 656 nM; that for `FC(F)(F)c1nn([C@H]2C[C@H](Nc3nc4ccccc4s3)C2)c2ncccc12` [Example 115, N-(trans-3-(3-(trifluoromethyl)-1H-pyrazolo[3,4-b]pyridin-1-yl)cyclobutyl)benzo[d]thiazol-2-amine] was 1.7 nM.
The value for `CC1(C)C(=O)N(C2CCN(c3nc4ccccc4s3)CC2)c2nccnc21` [Example 198, 5-(1-(benzo[d]thiazol-2-yl)piperidin-4-yl)-7,7-dimethyl-5H-pyrrolo[2,3-b]pyrazin-6(7H)-one] was 2.36 nM; that for `c1ccc2nc(N[C@H]3C[C@H](n4c(C5CC5)nc5cccnc54)C3)ncc2c1` [Example 8, N-(Trans-3-(2-cyclopropyl-3H-imidazo[4,5-b]pyridin-3-yl)cyclobutyl)quinazolin-2-amine] was 1.68 nM.
`O=C1N([C@H]2C[C@H](Nc3nc4ccccc4s3)C2)c2ncc(F)cc2C12CC2` [Example 33, 1′-(trans-3-(1,3-benzothiazol-2-ylamino)cyclobutyl)-5′-fluorospiro[cyclopropane-1,3′-pyrrolo[2,3-b]pyridin]-2′(1′H)-one]: the 50% inhibitory concentration (IC50) came to 0.0768 nM.
For `Cn1c(=O)n([C@H]2C[C@H](Nc3nc4ccccc4s3)C2)c2ccccc21` [Example 155, 1-(trans-3-(benzo[d]thiazol-2-ylamino)cyclobutyl)-3-methyl-1H-benzo[d]imidazol-2(3H)-one], the IC50 came to 1.67 nM.
Regarding `O=c1[nH]c2cccnc2n1[C@H]1CC[C@H](Nc2nc3cc(F)ccc3s2)CC1` [Example 107, 3-(trans-4-((5-fluorobenzo[d]thiazol-2-yl)amino)cyclohexyl)-1H-imidazo[4,5-b]pyridin-2(3H)-one], half-maximal inhibition (IC50) required 152 nM.
`O=C1Cc2cccnc2N1[C@H]1C[C@H](Nc2nc3ccccc3s2)C1` [Example 44, 1-(trans-3-(benzo[d]thiazol-2-ylamino)cyclobutyl)-1H-pyrrolo[2,3-b]pyridin-2(3H)-one] registered an IC50 of 2.44 nM.
`Cc1ccc(N[C@H]2CC[C@H](N3C(=O)C(C)(C)c4cccnc43)CC2)nc1` [Example 77, 3,3-Dimethyl-1-(trans-4-((5-methylpyridin-2-yl)amino)cyclohexyl)-1H-pyrrolo[2,3-b]pyridin-2(3H)-one]: the concentration for half-maximal inhibition (IC50) was determined as 1.29 nM.
As to `CC1(C)C(=O)N(C2CC(Nc3ccc4ccccc4n3)C2)c2nccnc21` (stereo not shown) [Example 187, 7,7-dimethyl-5-(3-(quinolin-2-ylamino)cyclobutyl)-5H-pyrrolo[2,3-b]pyrazin-6(7 H)-one], 1.06 nM corresponded to half-maximal inhibition (IC50).
`O=c1[nH]c2cccnc2n1[C@H]1C[C@H](Nc2ncc3ccc(F)cc3n2)C1` [Example 109, 3-(trans-3-((7-fluoroquinazolin-2-yl)amino)cyclobutyl)-1H-imidazo[4,5-b]pyridin-2(3H)-one] displayed a half-maximal inhibitory concentration (IC50) of 339 nM.
Then `CC1(C)C(=O)N([C@H]2C[C@H](Nc3ncc(-c4ccccc4)s3)C2)c2ncccc21` [Example 204, 3,3-dimethyl-1-(trans-3-((5-phenylthiazol-2-yl)amino)cyclobutyl)-1H-pyrrolo[2,3-b]pyridin-2(3H)-one], with 2910 nM.
`CCc1nc2cccnc2n1[C@H]1C[C@H](Nc2nc3ccccc3s2)C1` [Example 1, N-(trans-3-(2-ethyl-3H-imidazo[4,5-b]pyridin-3-yl)cyclobutyl)benzo[d]thiazol-2-amine] gave an IC50 of 0.113 nM.
In the case of `CC1(C)C(=O)N([C@H]2C[C@H](Nc3ccc4ncccc4n3)C2)c2ncncc21` [Example 150, 7-(trans-3-((1,5-naphthyridin-2-yl)amino)cyclobutyl)-5,5-dimethyl-5H-pyrrolo[2,3-d]pyrimidin-6(7H)-one], the IC50 stood at 0.906 nM.
As to `O=c1n(C2CC2)c2cccnc2n1[C@H]1C[C@H](Nc2nc3ccccc3s2)C1` [Example 85, 3-(trans-3-(benzo[d]thiazol-2-ylamino)cyclobutyl)-1-cyclopropyl-1H-imidazo[4,5-b]pyridin-2(3H)-one], the concentration for half-maximal inhibition (IC50) worked out at 0.0254 nM. This IC50 lies about 36-fold lower than the previous one.
The compound `Cc1ccnc(N[C@H]2C[C@H](N3C(=O)C(C)(C)c4cccnc43)C2)c1` [Example 51, 1-(Trans-3-((4-methylpyridin-2-yl)amino)cyclobutyl)-3,3-dimethyl-1H-pyrrolo[2,3-b]pyridin-2(3H)-one] returned an IC50 of 4.85 nM. This IC50 lies about 190-fold higher than the previous one.
The value for `COc1nc2cccnc2n1C1CCN(C(=O)c2nc3ccccc3[nH]2)CC1` [Example 122, (1H-benzo[d]imidazol-2-yl)(4-(2-methoxy-3H-imidazo[4,5-b]pyridine-3-yl)piperidin-1-yl)methanone] was 1.13 nM; that for `CC1(C)C(=O)N(C2CCN(c3ncc4cc(F)ccc4n3)CC2)c2nccnc21` [Example 201, 5-(1-(6-fluoroquinazolin-2-yl)piperidin-4-yl)-7,7-dimethyl-5H-pyrrolo[2,3-b]pyrazin-6(7H)-one] was 3.48 nM.
`O=C1N([C@H]2C[C@H](Nc3nc4ccccc4s3)C2)c2ncccc2C12CCCC2` [Example 36, 1′-(Trans-3-(benzo[d]thiazol-2-ylamino)cyclobutyl)spiro[cyclopentane-1,3′-pyrrolo[2,3-b]pyridin]-2′(1′H)-one] came in with a half-maximal inhibitory concentration (IC50) of 0.134 nM.
Regarding `Cc1cccnc1N[C@H]1C[C@H](N2C(=O)C(C)(C)c3cccnc32)C1` [Example 53, 1-(Trans-3-((3-methylpyridin-2-yl)amino)cyclobutyl)-3,3-dimethyl-1H-pyrrolo[2,3-b]pyridin-2(3H)-one], the midpoint of inhibition, the IC50, lay at 5.7 nM. This IC50 is about 43-fold higher than that of the compound before.
Regarding `O=c1[nH]c2cccnc2n1[C@H]1CC[C@H](Nc2ncc3ccccc3n2)CC1` [Example 110, 3-(trans-4-(quinazolin-2-ylamino)cyclohexyl)-1H-imidazo[4,5-b]pyridin-2(3H)-one], the IC50 turned out to be 461 nM. Against the preceding compound, the IC50 is about 81-fold higher.
In turn, `COc1nc2cccnc2n1C1CN(c2ccc3ccccc3n2)C1` [Example 126, 2-(3-(2-methoxy-3H-imidazo[4,5-b]pyridin-3-yl)azetidin-1-yl)quinoline] showed an IC50 of 0.13 nM.
The value for `O=c1[nH]c2cccnc2n1[C@H]1C[C@H](Nc2ccc3ccc(F)cc3n2)C1` [Example 101, 3-(trans-3-((7-fluoroquinolin-2-yl)amino)cyclobutyl)-1H-imidazo[4,5-b]pyridin-2(3H)-one] was 17.9 nM; that for `O=c1n(C2CC2)c2cccnc2n1[C@H]1C[C@H](Nc2ncc3ccccc3n2)C1` [Example 184, 1-cyclopropyl-3-(trans-3-(quinazolin-2-ylamino)cyclobutyl)-1H-imidazo[4,5-b]pyridin-2(3H)-one] was 34.7 nM; that for `O=c1[nH]c2cccnc2n1[C@H]1C[C@H](Nc2nc3c(F)cccc3s2)C1` [Example 98] was 4.82 nM.
On to `O=C1COc2cccnc2N1[C@H]1C[C@H](Nc2nc3ccccc3s2)C1` [Example 182, 4-(trans-3-(benzo[d]thiazol-2-ylamino)cyclobutyl)-2H-pyrido[3,2-b][1,4]oxazin-3(4H)-one], for which the IC50 is more than 9750 nM.
Compound `Oc1ncnc2c1nc(C(F)(F)F)n2[C@H]1C[C@H](Nc2ncc3ccccc3n2)C1` [Example 23, 9-(trans-3-(quinazolin-2-ylamino)cyclobutyl)-8-(trifluoromethyl)-9H-purin-6-ol] had a concentration for half-maximal inhibition (IC50) of 440 nM.
The value for `O=c1[nH]c2cncnc2n1[C@H]1C[C@H](Nc2nc3ccccc3s2)C1` [Example 97, 9-(trans-3-(benzo[d]thiazol-2-ylamino)cyclobutyl)-7H-purin-8(9H)-one] was 3.03 nM; that for `Cn1c(=O)n([C@H]2C[C@H](Nc3ncc4ccccc4n3)C2)c2ncc(F)cc21` [Example 206, 6-fluoro-1-methyl-3-(trans-3-(quinazolin-2-ylamino)cyclobutyl)-1H-imidazo[4,5-b]pyridin-2(3H)-one] was 7.65 nM.
On to `CC1(C)C(=O)N([C@H]2C[C@H](Nc3ncccc3F)C2)c2ncccc21` [Example 52, 1-(Trans-3-((3-fluoropyridin-2-yl)amino)cyclobutyl)-3,3-dimethyl-1H-pyrrolo[2,3-b]pyridin-2(3H)-one], for which the IC50 was found to be 5.69 nM. The IC50 values of the last two compounds are within 1.5-fold of each other.
For the compound `Cc1cnc(N[C@H]2C[C@H](N3C(=O)C(C)(C)c4cccnc43)C2)s1` [Example 205, 3,3-dimethyl-1-(trans-3-((5-methylthiazol-2-yl)amino)cyclobutyl)-1H-pyrrolo[2,3-b]pyridin-2(3H)-one], the half-inhibitory concentration (IC50) stood at 13.2 nM. Compared with the last compound, the IC50 is about 2.3-fold higher.
`CC(=O)Nc1ccc(N[C@H]2C[C@H](N3C(=O)C(C)(C)c4cccnc43)C2)nc1` [Example 56, N-(6-((Trans-3-(3,3-dimethyl-2-oxo-2,3-dihydro-1H-pyrrolo[2,3-b]pyridine-1-yl)cyclobutyl)amino)pyridine-3-yl)acetamide] gave an IC50 of 8.42 nM. Compared with the last compound, the IC50 is about 1.6-fold lower.
In the case of `Cc1cnc(N[C@H]2C[C@H](N3C(=O)C(C)(C)c4cccnc43)C2)nc1` [Example 48, 1-(trans-3-((5-methylpyrimidin-2-yl)amino)cyclobutyl)-3,3-dimethyl-1H-pyrrolo[2,3-b]pyridin-2(3H)-one], half-maximal inhibition (IC50) was put at 3.46 nM.
